From US20220387397A1, “COMPOUNDS AND COMPOSITIONS FOR TREATING CONDITIONS ASSOCIATED WITH NLRP ACTIVITY” (Novartis AG, priority 2018, published 2022)

These compounds were tested on IL-1β production in PMA-differentiated THP-1 cells (assay: IL-1β production in PMA-differentiated THP-1 cells stimulated with gramicidin (hTHP-1 assay, 2% bovine serum)). Conditions: Homo sapiens, THP-1; hTHP-1 assay containing 2% bovine serum; Table 13, by Example #.
Assay type: cell-based, human
Description: The following protocols are suitable for testing the activity of the compounds dislcosed herein. Bioassay 1:
IL-1β Production in PMA-Differentiated THP-1 Cells Stimulated with Gramicidin.
Cell culture-THP-1 cells were purchased from the American Type Culture Collection and sub-cultured according to instructions from the supplier. Prior to experiments, cells were cultured in RPMI 1640 containing 10% heat inactivated FBS, penicillin (100 units/ml) and streptomycin ([…]), and maintained in log phase prior to experimental setup. Prior to the experiment THP-1 were treated with PMA (Phorbol 12-myristate 13-acetate) ([…]) for 24 hours. The day of the experiment the media was removed and attaching cells were treated with trypsin for 2 minutes, cells were then collected, washed with PBS (phosphate buffer saline), spin down, resuspended in 2% heat inactivated FBS with RPMI at a concentration of 1×10^6 cells/ml, and 100 ul was plated in a 96 well plate. Cells were incubated with compounds for 1 hours and then stimulated with Gramicidin (5 μM) (Enzo) for 2 hours. Cell free supernatant was collected and the production of […] was evaluated by ELISA. Compounds were dissolved in dimethyl sulfoxide (DMSO) and added to the culture medium to achieve desired concentration (e.g. 100, 30, 10, 3, 1, 0.3 or 0.1 μM). A vehicle only control was run concurrently with each experiment. Final DMSO concentration was 1%.
THP-1 cells were purchased from the American Type Culture Collection and sub-cultured according to instructions from the supplier. Prior to experiments, cells were cultured in complete RPMI 1640 (containing 10% heat inactivated FBS, penicillin (100 units/ml) and streptomycin ([…])), and maintained in log phase prior to experimental setup. Prior to the experiment THP-1 were treated with PMA (Phorbol 12-myristate 13-acetate) (20 ng/ml) for 16-18 hours. On the day of the experiment the media was removed and adherent cells were detached with trypsin for 5 minutes. Cells were then harvested, washed with complete RPMI 1640, spun down, resuspended in RPMI 1640 (containing 2% heat inactivated FBS, penicillin (100 units/ml) and streptomycin ([…]). The cells were plated in a 384-well plate at a density of 50,000 cells/well (final assay volume […]). Compounds were dissolved in dimethyl sulfoxide (DMSO) and added to the culture medium to achieve desired concentration (e.g. 100, 33, 11, 3.7, 1.2, 0.41, 0.14, 0.046, 0.015, 0.0051, […]). Cells were incubated with compounds for 1 hour and then stimulated with gramicidin (5 μM) (Enzo) for 2 hours. Cell free supernatant was collected and the production of IL-1 was evaluated by HTRF (cisbio). A vehicle only control was run concurrently with each experiment. Final DMSO concentration was 0.38%.
Compounds tested with protocols 1 and 2 provided IC50 values that are within the variability of the assay.
Tables 13 and 14 show the biological activity of compounds in hTHP-1 assay containing 2% bovine serum: <1 μM=“++++”; ≥1 and <5 μM=“+++”; ≥5 and <15 μM=“++”; ≥15 and <60 μM=“+”.

IC50 | Compound
5 to 15 µM | CC(C)(O)c1csc(S(=O)(=O)NC(=O)Cc2c3c(cc4c2CCC4)CCC3)c1 [Example 7, 2-(1,2,3,5,6,7-hexahydros-indacen-4-yl)-N-(4-(2-hydroxypropan-2-yl)thiophen-2-ylsulfonyl)acetamide]
5 to 15 µM | CCc1cc(C(C)C)c(CC(=O)NS(=O)(=O)c2ccc(CN(C)C)cc2)c(C(C)C)c1 [Example 97, N-((4-((dimethylamino)methyl)phenyl)sulfonyl)-2-(4-ethyl-2,6-diisopropylphenyl)acetamide]

Same assay, conditions: Homo sapiens, THP-1; hTHP-1 assay containing 2% bovine serum; Table 14, by Final Target Number

IC50 | Compound
1 to 5 µM | CC(C)c1cc(C#N)c(F)c(C(C)C)c1CC(=O)NS(=O)(=O)c1cnc(C(C)(O)CO)s1 (centres unmarked) [Compound 401]
15 to 60 µM | CNC(=O)c1ccc(S(=O)(=O)NC(=O)Cc2c(C(C)C)cc(C#N)c(F)c2C(C)C)cc1O [Compound 402]
< 1 µM | CNS(=O)(=O)c1ccc(S(=O)(=O)NC(=O)Cc2c(C(C)C)cc(C#N)c(F)c2C(C)C)c(Cl)c1 [Compound 404]
5 to 15 µM | CC(C)c1cc(C#N)c(F)c(C(C)C)c1CC(=O)NS(=O)(=O)c1cnc(C(C)(O)CO[C@@H]2O[C@H](CO)[C@@H](O)[C@H](O)[C@H]2O)s1 (some centres unmarked) [Compound 405]
5 to 15 µM | CC(C)c1cc(C#N)c(F)c(C(C)C)c1CC(=O)NS(=O)(=O)c1cnc(C(C)(C)O)nc1 [Compound 406]
15 to 60 µM | CC(C)c1cc(C#N)c(F)c(C(C)C)c1CC(=O)NS(=O)(=O)c1cccc(-n2cc(CNC(=O)OC(C)(C)C)nn2)c1 [Compound 407]
5 to 15 µM | CC(C)c1cc(C#N)cc(C(C)C)c1CC(=O)NS(=O)(=O)c1cnc(C(C)(C)O)nc1 [Compound 409]
< 1 µM | CC(C)c1cc(C#N)c(F)c(C(C)C)c1CC(=O)NS(=O)(=O)c1cc(C(C)(C)O)no1 [Compound 416]

Same assay, conditions: Homo sapiens, THP-1; hTHP-1 assay containing 2% bovine serum; Table 14, given as a numeric bound

IC50 | Compound
> 30 µM | CC(C)c1cc(C#N)c(F)c(C(C)C)c1CC(=O)NS(=O)(=O)c1cccc(NC(=O)CCc2cn(CCNC(=O)OC(C)(C)C)nn2)c1 [Compound 408]
> 30 µM | CC(C)c1cc(F)cc(C(C)C)c1CC(=O)NS(=O)(=O)c1ccc([C@@H](C)N(C)C(=O)CCc2cn(CCOCCOCCOCCNC(=O)CCCC[C@@H]3SC[C@@H]4NC(=O)N[C@@H]43)nn2)cc1 [Compound 410]
> 30 µM | CC(C)c1cc(F)cc(C(C)C)c1CC(=O)NS(=O)(=O)c1ccc([C@H](C)N(C)C(=O)CCc2cn(CCOCCOCCOCCNC(=O)CCCC[C@H]3SC[C@@H]4NC(=O)N[C@@H]43)nn2)cc1 [Compound 411]
> 30 µM | CC(C)c1cc(C2(C(F)(F)F)N=N2)cc(C(C)C)c1CC(=O)NS(=O)(=O)c1ccc(CN(C)C(=O)CCCN(C)C(=O)CCOCCOCCOCCOCCNC(=O)CCCC[C@H]2SC[C@@H]3NC(=O)N[C@@H]32)cc1 [Compound 412]
> 30 µM | CC(C)c1cc(F)cc(C(C)C)c1CC(=O)NS(=O)(=O)c1ccc(C(C)N(C)C(=O)CCc2cn(CCOCCOCCOCCNC(=O)CCCC[C@@H]3SC[C@@H]4NC(=O)N[C@@H]43)nn2)cc1 (some centres unmarked) [Compound 415]

Same assay, conditions: hTHP-1 assay containing 2% bovine serum; Table 13, by Example #

IC50 | Compound
1 to 5 µM | CC(=O)c1ccc(F)c(S(=O)(=O)NC(=O)Cc2c(C(C)C)cc(F)cc2C(C)C)c1 [Example 55]
15 to 60 µM | N-(4-pentafluorophenylsulfonyl)-2-(4-fluoro-2,6-diisopropylphenyl)acetamide [Example 39]
